Measured values as given in patent publication US9487462B2, “Inhibitors of matrix metalloproteinases” (PharmaHungary 2000 Kft., priority 2010, dated 2016).
Like-named read-outs stand apart in the source and are kept apart here.

What was measured:
[1] = Cytotoxicity, alamarBlue viability, HCT116; format: cell-based; conditions: human, HCT116 colon tumor cells, 48 hours incubation, read-out: HCT116 LC50
Experimental: (§1) Beside the inhibitory effect on MMPs we tested the cytotoxicity of the selected compounds. These measurements were done in parallel on two cell lines. One of them was the healthy human fibroblast cell line MRC-5 while the other was the human colon tumor cell line HCT116. The viability of the cells was monitored using alamarBlue. This dye is reduced by the cells resulting in an increased fluorescent signal which is proportional to the number of living cells. Cells were incubated with the dilutions of the tested compounds for 48 hours then alamarBlue was added to them for 4 hours. After that the fluorescence changes were detected using excitation at 540 nm and emission wavelength of 590 nm by a Wallac 1420 Microplate Reader. IC50 values were determined for the compounds using six concentrations and duplicate points for each concentration.

[2] = biological target: MMP1 (Homo sapiens (Human), UniProt P03956); assay: MMP activity assay (fluorogenic substrate), MMP1; format: biochemical; conditions: Table 2; read-out: MM1 IC50
Sequence of MMP1 (P03956 100-469, species assumed): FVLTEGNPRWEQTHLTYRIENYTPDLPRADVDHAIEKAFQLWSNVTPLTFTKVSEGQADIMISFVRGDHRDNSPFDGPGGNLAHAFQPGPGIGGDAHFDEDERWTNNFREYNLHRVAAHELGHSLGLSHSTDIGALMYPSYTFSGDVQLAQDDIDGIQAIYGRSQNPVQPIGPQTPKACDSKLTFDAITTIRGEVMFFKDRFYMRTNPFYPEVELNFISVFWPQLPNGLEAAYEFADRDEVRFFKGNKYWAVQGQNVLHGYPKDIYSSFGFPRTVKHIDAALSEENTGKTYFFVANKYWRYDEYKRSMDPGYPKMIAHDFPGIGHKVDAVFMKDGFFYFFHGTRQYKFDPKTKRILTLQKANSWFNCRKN

[3] = biological target: MMP13 (Homo sapiens (Human), UniProt P45452); assay: MMP activity assay (fluorogenic substrate), MMP13 catalytic domain; format: biochemical
Experimental: (§2) MMP activity assays were conducted as follows: MMP2, MMP9, MMP13 catalytic domain was expressed in E. coli in form of inclusion bodies followed by refolding and purification.
(§3) The Protocol of the Activity Assay:
Stock solution of substrate (Mca-Lys-Pro-Leu-Gly-Leu-Dpa-Ala-Arg-NH2) was prepared in DMSO at a concentration of 6 mM. Assays were performed in an assay buffer (50 mM Tris pH 7.5, 300 mM NaCl, 10 μM ZnSO4, 5 mM CaCl2, 0.005% Brij-35). The final DMSO concentration in all assays was 1.0%. […] The assays were carried out at 37° C. […] The reaction mixtures were preincubated with the inhibitors for 30 minutes. The reactions were started by the addition of MMP substrate, and the fluorescence intensity changes were measured after 60 minutes. The obtained fluorescence values were normalized and % inhibition values calculated. Dose response curves were determined from 6 concentration points using three fold dilution steps, each concentration point was determined in duplicate. IC50 values were calculated from the dose response curves.

[4] = biological target: MMP9 (Homo sapiens, UniProt P14780); assay: MMP activity assay (fluorogenic substrate), MMP9 catalytic domain; format: biochemical; conditions: Table 2
Experimental: as §2, §3
(§4) Stock solution of substrate (Mca-Lys-Pro-Leu-Gly-Leu-Dpa-Ala-Arg-NH2) was prepared in DMSO at a concentration of 6 mM. Assays were performed in an assay buffer (50 mM Tris pH 7.5, 300 mM NaCl, 10 μM ZnSO4, 5 mM CaCl2, 0.005% Brij-35). The final DMSO concentration in all assays was 1.0%. […] The assays were carried out at 37° C. The fluorescence changes, resulting from the substrate cleavage, were detected using excitation at 340 nm and emission wavelength of 405 nm using a Wallac 1420 Microplate Reader. The reaction mixtures were preincubated with the inhibitors for 30 minutes. The reactions were started by the addition of MMP substrate, and the fluorescence intensity changes were measured after 60 minutes. The obtained fluorescence values were normalized and % inhibition values calculated. Dose response curves were determined from 6 concentration points using three fold dilution steps, each concentration point was determined in duplicate. IC50 values were calculated from the dose response curves.

[5] = biological target: MMP-2 (Rattus norvegicus (Rat), UniProt P33436); assay: In vitro zymography assay (gelatin), MMP-2; format: biochemical
Sequence of MMP-2 (P33436 110-662): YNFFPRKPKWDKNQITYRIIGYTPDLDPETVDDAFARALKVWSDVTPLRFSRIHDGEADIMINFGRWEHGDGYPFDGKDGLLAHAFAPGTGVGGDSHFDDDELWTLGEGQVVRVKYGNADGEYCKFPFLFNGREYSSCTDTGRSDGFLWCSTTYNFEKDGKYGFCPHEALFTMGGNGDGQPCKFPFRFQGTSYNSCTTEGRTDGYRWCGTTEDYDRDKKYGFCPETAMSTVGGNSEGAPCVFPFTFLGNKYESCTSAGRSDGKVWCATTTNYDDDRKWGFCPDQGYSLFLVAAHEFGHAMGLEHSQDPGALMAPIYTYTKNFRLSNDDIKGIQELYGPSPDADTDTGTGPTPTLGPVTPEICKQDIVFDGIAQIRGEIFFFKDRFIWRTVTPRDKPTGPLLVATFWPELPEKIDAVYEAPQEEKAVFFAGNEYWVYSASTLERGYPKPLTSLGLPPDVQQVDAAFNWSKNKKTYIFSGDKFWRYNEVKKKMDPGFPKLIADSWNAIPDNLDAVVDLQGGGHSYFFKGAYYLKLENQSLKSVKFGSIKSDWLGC
Experimental: MMP-2 and MMP-9 enzymes were isolated from rat hearts and from rat spleen while human, recombinant MMP-1 and MMP-13 enzymes used were commercial. MMP-2, -9, -13 enzymes were separated by electrophoresis during non-reducing conditions on 8% SDS-polyacrylamide gels copolymerized with 2 mg/ml gelatin from porcine skin (Sigma Aldrich) while MMP-1 was separated under the same conditions on 8% SDS-polyacrylamide gels copolymerized with 2 mg/ml casein (Sigma Aldrich). […] In case of MMP-13 p-aminophenylmercuric acetate (APMA) was used for enzyme activation at 37° C. for 30 min. After electrophoresis, gels were washed in 2.5% Triton-X 100 with agitation and then incubated for 20 hrs at 37° C. in enzyme incubation buffer (50 mM Tris-HCl, pH 7.5, containing 5 mM CaCl2, 200 mM NaCl) with or without MMP inhibitor. Zymographic gels were stained in Coomassie Brilliant Blue R-250 and de-stained. Gelatin and casein zymograms were scanned. MMP activity is detected as a white zone on a blue background and the clear bands in the gel can be quantified by densitometry. The obtained density values were measured and % inhibition values calculated (Kupai et al., 2010). The table below summarizes the prescreen inhibition values determined for different MMP inhibitors on MMP1, -2, -9, -13.

[6] = Cytotoxicity, alamarBlue viability, MRC-5; format: cell-based; conditions: human, MRC-5 fibroblast cells, 48 hours incubation, read-out: MRC-5 LC50
Experimental: as §1

[7] = biological target: MMP2 (Homo sapiens, UniProt P08253); assay: MMP activity assay (fluorogenic substrate), MMP2 catalytic domain; format: biochemical; conditions: Table 2; read-out: MMP2 IC50
Experimental: as §2, §3, §4

[8] = test system: neonatal rat cardiac myocytes; assay: Cytoprotective effect in cardiac myocytes subjected to hypoxia and reoxygenation; format: cell-based
Experimental: Neonatal rat hearts were digested and isolated cardiomyocytes were plated onto 24-well plastic plates at […]. The cells were maintained at 37° C. in a humidified atmosphere of 5% CO2 and 95% air in a CO2 incubator until confluence was reached. Cultures at day 3 were used for treatments. Cells were kept under normoxic or simulated ischemic conditions, i.e. the growth medium was changed to a normoxic or hypoxic solution and the cells were incubated under 95% air and 5% CO2 or 95% N2 and 5% CO2 at 37° C. for 4 h, respectively as described in detail (Gorbe A, Giricz Z, Szunyog A, Csont T, Burley D S, Baxter G F, Ferdinandy P. Role of cGMP-PKG signaling in the protection of neonatal rat cardiac myocytes subjected to simulated ischemia/reoxygenation. Basic Res Cardiol. 105:643-650, 2010). The positive control ilomastate (0.5 microM) and MMP-inhibitors at different effective concentrations (EC 5, EC 10, EC 20, and EC50 as determined in previous test examples) were applied during normoxia or simulated ischemia and also during reoxygenation. The vehicle was DMSO. Cell viability was determined after Calcein A M fluorescent staining as described (Karliner J S, Honbo N, Summers K, Gray M O, Goetzl E J. The lysophospholipids sphingosine-1-phosphate and lysophosphatidic acid enhance survival during hypoxia in neonatal rat cardiac myocytes. J Mol Cell Cardiol, 33:1713-7, 2001). Total cell count was determined after digitonin treatment to permeabilize the cells by using propidium iodine fluorescent staining (Roy S S, Hajnoczky G. Calcium, mitochondria and apoptosis studied by fluorescence measurements. Methods. 46:213-223, 2008).

Compound: O=C(O)c1csc(CN(Cc2ccc(OCc3ccccc3)cc2)Cc2cccc(F)c2)n1 [Compound 5, 2-[({[4-(Benzyloxy)phenyl]methyl}[(3-fluorophenyl)methyl]amino)methyl]-1,3-thiazole-4-carboxylic acid]
- CC50 at 48 h [1]: 3.5 µM
- IC50 [2]: 6 µM
- IC50 ([3]; Table 2, read-out: MMP13 IC50): 4.7 µM
- IC50 [4]: 9.8 µM
- % inhibition MMP-2 (72 kDa) ([5]; 1 μM, % ± SD): No inhibition
- inhibition at 100 µM ([5]; 100 μM, % ± SD, read-out: % inhibition MMP-2 (72 kDa)): 11.1 ± 1.58%
- CC50 at 48 h [6]: 43 µM
- IC50 [7]: 25 µM

Compound: O=C(O)c1csc(CN(Cc2ccc(F)cc2)Cc2ccc(-c3ccccc3)cc2)n1 [Compound 15, 2-({[(4-Fluorophenyl)methyl][(4-biphenyl)methyl]amino}methyl)-1,3-thiazole-4-carboxylic acid]
- CC50 at 48 h [1]: 1 µM
- IC50 [2]: 17 µM
- IC50 ([3]; Table 2, read-out: MMP13 IC50): 3 µM
- IC50 [4]: 20 µM
- Cytoprotective effect, % cell survival as compared to vehicle DMSO ([8]; normoxia, EC5 concentration 3.0 microM): 95 ± 2%
- Cytoprotective effect, % cell survival as compared to vehicle DMSO ([8]; normoxia, EC10 concentration 10.0 microM): 99 ± 2%
- Cytoprotective effect, % cell survival as compared to vehicle DMSO ([8]; normoxia, EC20 concentration 30.0 microM): 100 ± 2%
- Cytoprotective effect, % cell survival as compared to vehicle DMSO ([8]; normoxia, EC50 concentration 90.0 microM): 83 ± 2 %
- Cytoprotective effect, % cell survival as compared to vehicle DMSO ([8]; simulated ischemia, EC5 concentration 3.0 microM): 109 ± 5%
- Cytoprotective effect, % cell survival as compared to vehicle DMSO ([8]; simulated ischemia, EC10 concentration 10.0 microM): 117 ± 5 %
- Cytoprotective effect, % cell survival as compared to vehicle DMSO ([8]; simulated ischemia, EC20 concentration 30.0 microM): 114 ± 4 %
- Cytoprotective effect, % cell survival as compared to vehicle DMSO ([8]; simulated ischemia, EC50 concentration 90.0 microM): 88 ± 4%
- CC50 at 48 h [6]: 2.9 µM
- IC50 [7]: 30 µM

Compound: CCOC(=O)c1csc(CN(Cc2ccc(OCc3ccccc3)cc2)Cc2cccnc2)n1 [Compound 16, Ethyl 2-[({[4-(benzyloxy)phenyl]methyl}(pyridin-3-ylmethyl)amino)methyl]-1,3-thiazole-4-carboxylate]
- CC50 at 48 h [1]: 1.8 µM
- IC50 [2]: 340 µM
- IC50 ([3]; Table 2, read-out: MMP13 IC50): 5 µM
- IC50 [4]: 280 µM
- Cytoprotective effect, % cell survival as compared to vehicle DMSO ([8]; normoxia, EC5 concentration 4.0 microM): 105 ± 2%
- Cytoprotective effect, % cell survival as compared to vehicle DMSO ([8]; normoxia, EC10 concentration 8.0 microM): 108 ± 3 %
- Cytoprotective effect, % cell survival as compared to vehicle DMSO ([8]; normoxia, EC20 concentration 16.0 microM): 99 ± 2%
- Cytoprotective effect, % cell survival as compared to vehicle DMSO ([8]; normoxia, EC50 concentration 32.0 microM): 91 ± 2 %
- Cytoprotective effect, % cell survival as compared to vehicle DMSO ([8]; simulated ischemia, EC5 concentration 4.0 microM): 119 ± 3 %
- Cytoprotective effect, % cell survival as compared to vehicle DMSO ([8]; simulated ischemia, EC10 concentration 8.0 microM): 119 ± 3 %
- Cytoprotective effect, % cell survival as compared to vehicle DMSO ([8]; simulated ischemia, EC20 concentration 16.0 microM): 122 ± 4 %
- Cytoprotective effect, % cell survival as compared to vehicle DMSO ([8]; simulated ischemia, EC50 concentration 32.0 microM): 113 ± 4 %
- CC50 at 48 h [6]: 1.9 µM
- IC50 [7]: > 500 µM

Compound: CCOC(=O)c1csc(CN(Cc2ccncc2)Cc2ccc(OCc3ccccc3)cc2)n1 [Compound 20, Ethyl 2-[({[4-(benzyloxy)phenyl]methyl}(pyridin-4-ylmethyl)amino)methyl]-1,3-thiazole-4-carboxylate]
- CC50 at 48 h [1]: 16 µM
- IC50 [2]: 325 µM
- IC50 ([3]; Table 2, read-out: MMP13 IC50): 7.5 µM
- IC50 [4]: > 500 µM
- CC50 at 48 h [6]: 13 µM
- IC50 [7]: > 500 µM

Compound: Cn1cc(C(F)(F)F)nc1CN(Cc1ccc(F)cc1)Cc1ccc(OCc2ccccc2)cc1 [Compound 26, {[4-(Benzyloxy)phenyl]methyl}[(4-fluorophenyl)methyl]{[1-methyl-4-(trifluoromethyl)-1H-imidazol-2-yl]methyl}amine]
- CC50 at 48 h [1]: 25 µM
- IC50 [2]: > 500 µM
- IC50 ([3]; Table 2, read-out: MMP13 IC50): 34 µM
- IC50 [4]: > 500 µM
- CC50 at 48 h [6]: 40 µM
- IC50 [7]: > 500 µM

Compound: O=C(O)c1c[nH]c(CNCc2ccc(OCc3cccnc3)cc2)n1 [Compound 31, 2-[({[4-(Pyridin-3-ylmethoxy)phenyl]methyl}amino)methyl]-1H-imidazole-4-carboxylic acid]
- CC50 at 48 h [1]: 70 µM
- IC50 [2]: 235 µM
- IC50 ([3]; Table 2, read-out: MMP13 IC50): 10 µM
- IC50 [4]: > 500 µM
- Cytoprotective effect, % cell survival as compared to vehicle DMSO ([8]; normoxia, EC5 concentration 0.3 microM): 97 ± 4%
- Cytoprotective effect, % cell survival as compared to vehicle DMSO ([8]; normoxia, EC10 concentration 0.6 microM): 102 ± 5%
- Cytoprotective effect, % cell survival as compared to vehicle DMSO ([8]; normoxia, EC20 concentration 1.2 microM): 104 ± 3%
- Cytoprotective effect, % cell survival as compared to vehicle DMSO ([8]; normoxia, EC50 concentration 2.5 microM): 105 ± 4%
- Cytoprotective effect, % cell survival as compared to vehicle DMSO ([8]; simulated ischemia, EC5 concentration 0.3 microM): 109 ± 5%
- Cytoprotective effect, % cell survival as compared to vehicle DMSO ([8]; simulated ischemia, EC10 concentration 0.6 microM): 103 ± 4%
- Cytoprotective effect, % cell survival as compared to vehicle DMSO ([8]; simulated ischemia, EC20 concentration 1.2 microM): 111 ± 4%
- Cytoprotective effect, % cell survival as compared to vehicle DMSO ([8]; simulated ischemia, EC50 concentration 2.5 microM): 147 ± 2 %
- CC50 at 48 h [6]: 200 µM
- IC50 [7]: > 500 µM

Compound: CCOC(=O)c1csc(CN(Cc2ccc(F)cc2)Cc2ccc(-c3ccccc3)cc2)n1 [Compound 32, 2-{[Biphenyl-4-ylmethyl-(4-fluoro-benzyl)-amino]-methyl}-thiazole-4-carboxylic acid ethylester]
- CC50 at 48 h [1]: 0.7 µM
- IC50 [2]: 90 µM
- IC50 ([3]; Table 2, read-out: MMP13 IC50): 31 µM
- IC50 [4]: 200 µM
- CC50 at 48 h [6]: 13 µM
- IC50 [7]: > 500 µM

Compound: CNC(=O)[C@H](Cc1c[nH]c2ccccc12)NC(=O)[C@@H](CC(=O)NO)CC(C)C [ilomastat, reference compound]
- IC50 ([3]; read-out: IC50 on MMP13): 0.0002 µM
- cytoprotective effect as compared to vehicle-treated cells ([8]; positive control, 0.5 microM): approximately 120%
- IC50 [5]: 0.71 nM
